# In patent publication US20220119868A1, “PROFILING RNA-SMALL MOLECULE BINDING SITES WITH OLIGONUCLEOTIDES” (priority 2018, published 2022):
# Columns and labels:
# [1] = test system: SL I site of HCV RNA in replicon cells; test: Oligonucleotide profiling of target engagement in cells by RT-qPCR; type: cell-based, Hepatitis C virus
# Description: Given these favorable results in vitro, the competitive cleaving approach was used to map cellular ligand binding sites. […] Previous approaches to map small molecule-RNA binding sites, such as Chemical Cross-Linking and Isolation by Pull-down (Chem-CLIP)59-61 and Small Molecule Nucleic Acid Profiling by Cleavage Applied to RNA (Ribo-SNAP)61, require the synthesis of derivatives of the lead molecules that allow them to cross-link or cleave and RNA target, respectively. […] Guan, L. and Disney, M. D. (2012). Recent advances in developing small molecules targeting RNA. ACS Chem. Biol. 7, 73-86. • 2. Thomas, J. R. and Hergenrother, P. J. (2008). Targeting RNA with small molecules. Chem. Rev. 108, 1171-1224. • 3. Blount, K. F. and Breaker, R. R. (2006). Riboswitches as antibacterial drug targets. Nat. Biotechnol. 24, 1558-1564. • 4. Tenson, T. and Mankin, A. (2006). Antibiotics and the ribosome. Mol. Microbiol. 59, 1664-1677. • 5. Schlunzen, F., Zarivach, R., Harms, J., Bashan, A., Tocilj, A., Albrecht, R., Yonath, A. and Franceschi, F. (2001). Structural basis for the interaction of antibiotics with the peptidyl transferase centre in eubacteria. Nature 413, 814-821. • 6. Hermann, T. (2016). Small molecules targeting viral rna. Wiley Interdiscip. Rev. RNA 7, 726-743. • 7. Ohgushi, M., Kuroki, S., Fukamachi, H., O'Reilly, L. A., Kuida, K., Strasser, A. and Yonehara, S. (2005). […]
# [2] = test system: BP-SLI RNA (mutated SL I); test: Oligonucleotide profiling in vitro, control RNA mutated to remove 8's binding site; type: biochemical, Hepatitis C virus; settings: complementary oligonucleotide
# Description: Application of an antisense agent (Table 4) and RNase H cleaves the RNA at the desired site. […] Additional control experiments were completed in which the RNA was mutated to remove 8's binding site and the corresponding complementary oligonucleotide to induce RNase H cleavage.
# Effect of compounds on HCV replication. […] Cytotoxicity assays. […] Oligonucleotide profiling of target engagement in vitro. […] Primers can be found in Table 4. […] Inhibition of kinases. […] . Figure S7C).
compound,measurement,setting,value
O=C(Nc1ccc(C2=NCCN2)cc1)c1cc(C(=O)Nc2ccc(C3=NCCN3)cc2)cc(C(=O)Nc2ccc(C3=NCCN3)cc2)c1 [Compound 8],rescue of ASO-induced cleavage in cells,[1]; Control ASO complementary to a downstream site,does not rescue cleavage
same,inhibition of ASO-induced cleavage in cells,[1]; antisense oligonucleotide overlapping the 8-binding site (SL I ASO),inhibited cleavage
same,effect on antisense/RNase H cleavage of mutated RNA,[2],the extent and pattern of cleavage were similar in the absence and the presence of compound 8
